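Grown in 96-well plates, cells were treated for 48 hours with each compound at five concentrations. Insufficient inhibition: endpoint recorded as highest concentration tested. Definition used: TGI = concentration required for complete inhibition of growth.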
What was measured:
Experiment in all cases: DTP human tumour cell line panel, 48 h
786-0 renal = test system: 786-0 renal
A498 renal = test system: A498 renal
A549 NSCLC = test system: A549 NSCLC
ACHN renal = test system: ACHN renal
BT-549 breast = test system: BT-549 breast
CAKI-1 renal = test system: CAKI-1 renal
CCRF-CEM leukemia = test system: CCRF-CEM leukemia
COLO 205 colon = test system: COLO 205 colon
DU-145 prostate = test system: DU-145 prostate
EKVX NSCLC = test system: EKVX NSCLC
HCC-2998 colon = test system: HCC-2998 colon
HCT-116 colon = test system: HCT-116 colon
HCT-15 colon = test system: HCT-15 colon
HL-60(TB) leukemia = test system: HL-60(TB) leukemia
HOP-62 NSCLC = test system: HOP-62 NSCLC
HOP-92 NSCLC = test system: HOP-92 NSCLC
HS 578T breast = test system: HS 578T breast
HT29 colon = test system: HT29 colon
IGROV1 ovarian = test system: IGROV1 ovarian
K-562 leukemia = test system: K-562 leukemia
KM12 colon = test system: KM12 colon
LOX IMVI melanoma = test system: LOX IMVI melanoma
M14 melanoma = test system: M14 melanoma
MALME-3M melanoma = test system: MALME-3M melanoma
MCF7 breast = test system: MCF7 breast
MDA-MB-231 breast = test system: MDA-MB-231 breast
MDA-MB-435 = test system: MDA-MB-435
MDA-N = test system: MDA-N
MOLT-4 leukemia = test system: MOLT-4 leukemia
NCI-H226 lung = test system: NCI-H226 lung
NCI-H23 lung = test system: NCI-H23 lung
NCI-H460 lung = test system: NCI-H460 lung
NCI-H522 lung = test system: NCI-H522 lung
NCI/ADR-RES ovarian = test system: NCI/ADR-RES ovarian
OVCAR-3 ovarian = test system: OVCAR-3 ovarian
OVCAR-4 ovarian = test system: OVCAR-4 ovarian
OVCAR-5 ovarian = test system: OVCAR-5 ovarian
OVCAR-8 ovarian = test system: OVCAR-8 ovarian
PC-3 prostate = test system: PC-3 prostate
RPMI-8226 leukemia = test system: RPMI-8226 leukemia
RXF 393 renal = test system: RXF 393 renal
SF-268 CNS = test system: SF-268 CNS
SF-295 CNS = test system: SF-295 CNS
SK-MEL-28 melanoma = test system: SK-MEL-28 melanoma
SK-MEL-5 melanoma = test system: SK-MEL-5 melanoma
SK-OV-3 ovarian = test system: SK-OV-3 ovarian
SN12C renal = test system: SN12C renal
SNB-19 CNS = test system: SNB-19 CNS
SNB-75 CNS = test system: SNB-75 CNS
SR leukemia = test system: SR leukemia
SW-620 colon = test system: SW-620 colon
T-47D breast = test system: T-47D breast
TK-10 renal = test system: TK-10 renal
U251 CNS = test system: U251 CNS
UACC-62 melanoma = test system: UACC-62 melanoma
UO-31 renal = test system: UO-31 renal
SK-MEL-2 melanoma = test system: SK-MEL-2 melanoma
UACC-257 melanoma = test system: UACC-257 melanoma

## CC(C)(C)OC(=O)C1CCC/C1=N/Nc1ccc([N+](=O)[O-])cc1[N+](=O)[O-] (configuration not stated)
786-0 renal
  TGI: > 100 µM
A498 renal
  TGI: 65.4 µM
A549 NSCLC
  TGI: > 100 µM
ACHN renal
  TGI: > 100 µM
BT-549 breast
  TGI: 93.2 µM
CAKI-1 renal
  TGI: > 100 µM
CCRF-CEM leukemia
  TGI: > 100 µM
COLO 205 colon
  TGI: > 100 µM
DU-145 prostate
  TGI: > 100 µM
EKVX NSCLC
  TGI: 89.9 µM
HCC-2998 colon
  TGI: > 100 µM
HCT-116 colon
  TGI: 78.5 µM
HCT-15 colon
  TGI: > 100 µM
HL-60(TB) leukemia
  TGI: > 100 µM
HOP-62 NSCLC
  TGI: > 100 µM
HOP-92 NSCLC
  TGI: > 100 µM
HS 578T breast
  TGI: > 100 µM
HT29 colon
  TGI: > 100 µM
IGROV1 ovarian
  TGI: > 100 µM
K-562 leukemia
  TGI: > 100 µM
KM12 colon
  TGI: > 100 µM
LOX IMVI melanoma
  TGI: > 100 µM
M14 melanoma
  TGI: > 100 µM
MALME-3M melanoma
  TGI: > 100 µM
MCF7 breast
  TGI: > 100 µM
MDA-MB-231 breast
  TGI: > 100 µM
MDA-MB-435
  TGI: 53.2 µM
MDA-N
  TGI: > 100 µM
MOLT-4 leukemia
  TGI: > 100 µM
NCI-H226 lung
  TGI: > 100 µM
NCI-H23 lung
  TGI: 63.5 µM
NCI-H460 lung
  TGI: > 100 µM
NCI-H522 lung
  TGI: > 100 µM
NCI/ADR-RES ovarian
  TGI: > 100 µM
OVCAR-3 ovarian
  TGI: > 100 µM
OVCAR-4 ovarian
  TGI: > 100 µM
OVCAR-5 ovarian
  TGI: > 100 µM
OVCAR-8 ovarian
  TGI: > 100 µM
PC-3 prostate
  TGI: > 100 µM
RPMI-8226 leukemia
  TGI: > 100 µM
RXF 393 renal
  TGI: > 100 µM
SF-268 CNS
  TGI: > 100 µM
SF-295 CNS
  TGI: 88.9 µM
SK-MEL-28 melanoma
  TGI: > 100 µM
SK-MEL-5 melanoma
  TGI: 29.3 µM
SK-OV-3 ovarian
  TGI: > 100 µM
SN12C renal
  TGI: > 100 µM
SNB-19 CNS
  TGI: > 100 µM
SNB-75 CNS
  TGI: 73.9 µM
SR leukemia
  TGI: > 100 µM
SW-620 colon
  TGI: > 100 µM
T-47D breast
  TGI: 88.1 µM
TK-10 renal
  TGI: > 100 µM
U251 CNS
  TGI: 56.1 µM
UACC-62 melanoma
  TGI: > 100 µM
UO-31 renal
  TGI: > 100 µM

## COc1cc(C=C(c2ccc(N(C)C)cc2)c2ccc(N(C)C)cc2)c2ccccc2c1OC
786-0 renal
  TGI: > 100 µM
A549 NSCLC
  TGI: > 100 µM
ACHN renal
  TGI: > 100 µM
BT-549 breast
  TGI: > 100 µM
CAKI-1 renal
  TGI: > 100 µM
CCRF-CEM leukemia
  TGI: > 100 µM
COLO 205 colon
  TGI: > 100 µM
DU-145 prostate
  TGI: > 100 µM
EKVX NSCLC
  TGI: > 100 µM
HCC-2998 colon
  TGI: > 100 µM
HCT-116 colon
  TGI: > 100 µM
HCT-15 colon
  TGI: > 100 µM
HL-60(TB) leukemia
  TGI: > 100 µM
HOP-62 NSCLC
  TGI: > 100 µM
HOP-92 NSCLC
  TGI: > 100 µM
HS 578T breast
  TGI: > 100 µM
HT29 colon
  TGI: > 100 µM
IGROV1 ovarian
  TGI: > 100 µM
K-562 leukemia
  TGI: > 100 µM
KM12 colon
  TGI: > 100 µM
LOX IMVI melanoma
  TGI: > 100 µM
M14 melanoma
  TGI: > 100 µM
MALME-3M melanoma
  TGI: > 100 µM
MCF7 breast
  TGI: > 100 µM
MDA-MB-231 breast
  TGI: > 100 µM
MDA-MB-435
  TGI: > 100 µM
MDA-N
  TGI: 40.7 µM
MOLT-4 leukemia
  TGI: > 100 µM
NCI-H226 lung
  TGI: > 100 µM
NCI-H23 lung
  TGI: > 100 µM
NCI-H460 lung
  TGI: > 100 µM
NCI-H522 lung
  TGI: > 100 µM
NCI/ADR-RES ovarian
  TGI: > 100 µM
OVCAR-3 ovarian
  TGI: 74 µM
OVCAR-4 ovarian
  TGI: > 100 µM
OVCAR-5 ovarian
  TGI: > 100 µM
OVCAR-8 ovarian
  TGI: > 100 µM
PC-3 prostate
  TGI: > 100 µM
RPMI-8226 leukemia
  TGI: > 100 µM
RXF 393 renal
  TGI: > 100 µM
SF-268 CNS
  TGI: > 100 µM
SF-295 CNS
  TGI: > 100 µM
SK-MEL-2 melanoma
  TGI: > 100 µM
SK-MEL-28 melanoma
  TGI: > 100 µM
SK-MEL-5 melanoma
  TGI: > 100 µM
SK-OV-3 ovarian
  TGI: > 100 µM
SN12C renal
  TGI: > 100 µM
SNB-19 CNS
  TGI: > 100 µM
SNB-75 CNS
  TGI: > 100 µM
SR leukemia
  TGI: > 100 µM
T-47D breast
  TGI: > 100 µM
TK-10 renal
  TGI: > 100 µM
U251 CNS
  TGI: > 100 µM
UACC-257 melanoma
  TGI: > 100 µM
UACC-62 melanoma
  TGI: > 100 µM
UO-31 renal
  TGI: > 100 µM
